In patent publication US20140288069A1, “AMINO-SUBSTITUTED IMIDAZOPYRIDAZINES AS MKNK1 KINASE INHIBITORS” (Bayer Intellectual Property GmbH, priority 2011, published 2014):

Assays:
human full-length MKNK1 = target: T1, human full-length MKNK1 (Homo sapiens, UniProt Q9BUB5, T385D); test: MKNK1 kinase high ATP assay (TR-FRET-based); assay type: biochemical; details: final ATP 2 mM, 15 min pre-incubation with MKNK1, GST-MKNK1 (T344D);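 further: biotinylated peptide phosphorylation read out via Eu-chelate to streptavidin-XL665 energy transfer using anti-phospho-S6 (Ser236) antibody, 30 min reaction at 22 °C with 0.06 µM substrate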
T1 construct: GST (N); purchased Carna Biosciences 02-145; host or cells: insect cells (baculovirus)
Text: A recombinant fusion protein of Glutathione-S-Transferase (GST, N-terminally) and human full-length MKNK1 (amino acids 1-424 and T344D of accession number BAA 19885.1), expressed in insect cells using baculovirus expression system and purified via glutathione sepharose affinity chromatography, was purchased from Carna Biosciences (product no 02-145) and used as enzyme. As substrate for the kinase reaction the biotinylated peptide biotin-Ahx-[sequence] (C-terminus in amide form) was used, which can be purchased e.g. from the company Biosyntan (Berlin-Buch, Germany).
For the assay 50 nl nL of a 100 fold concentrated solution of the test compound in DMSO was pipetted into a black low volume 384 well microtiter plate (Greiner Bio-One, Frickenhausen, Germany), 2 μL of a solution of MKNK1 in aqueous assay buffer [50 mM HEPES pH 7.5, 5 mM magnesium chloride, 1.0 mM dithiothreitol, 0.005% (v/v) Nonidet-P40 (Sigma)] was added and the mixture was incubated for 15 min at 22° C. to allow pre-binding of the test compounds to the enzyme before the start of the kinase reaction. Then the kinase reaction was started by the addition of 3 μL of a solution of adenosine-tri-phosphate (ATP, 3.3 mM=>final conc. in the 5 μL assay volume is 2 mM) and substrate (0.1 μM=>final conc. in the 5 μL assay volume is 0.06 μM) in assay buffer and the resulting mixture was incubated for a reaction time of 30 min at 22° C. The concentration of MKNK1 was adjusted depending of the activity of the enzyme lot and was chosen appropriate to have the assay in the linear range, typical concentrations were in the range of 0.003 μg/mL. The reaction was stopped by the addition of 5 μL of a solution of TR-FRET detection reagents (5 nM streptavidine-XL665 [Cisbio Bioassays, Codolet, France] and 1 nM anti-ribosomal protein S6 (pSer236)-antibody from Invitrogen [#44921G] and 1 nM LANCE EU-W1024 labeled ProteinG [Perkin-Elmer, product no. 4D0071]) in an aqueous EDTA-solution (100 mM EDTA, 0.1% (w/v) bovine serum albumin in 50 mM HEPES pH 7.5).
The resulting mixture was incubated for 1 h at 22° C. to allow the formation of complex between the phosphorylated biotinylated peptide and the detection reagents. Subsequently the amount of phosphorylated substrate was evaluated by measurement of the resonance energy transfer from the Eu-chelate to the streptavidine-XL. Therefore, the fluorescence emissions at 620 nm and 665 nm after excitation at 350 nm were measured in a TR-FRET reader, e.g. a Rubystar (BMG Labtechnologies, Offenburg, Germany) or a Viewlux (Perkin-Elmer). The ratio of the emissions at 665 nm and at 622 nm was taken as the measure for the amount of phosphorylated substrate.

human full-lengt MKNK1 = target: T2, human full-lengt MKNK1 (Homo sapiens, UniProt Q9BUB5, T385D); test: MKNK1 kinase assay (MKNK1 TR-FRET assay); assay type: biochemical; details: final ATP 10 μM, 15 min pre-incubation, GST-MKNK1 (T344D)
T2 construct: GST (N); purchased Carna Biosciences 02-145; host or cells: insect cells (baculovirus)
T2 sequence (Q9BUB5 1-424 isoform Q9BUB5-2 T344D): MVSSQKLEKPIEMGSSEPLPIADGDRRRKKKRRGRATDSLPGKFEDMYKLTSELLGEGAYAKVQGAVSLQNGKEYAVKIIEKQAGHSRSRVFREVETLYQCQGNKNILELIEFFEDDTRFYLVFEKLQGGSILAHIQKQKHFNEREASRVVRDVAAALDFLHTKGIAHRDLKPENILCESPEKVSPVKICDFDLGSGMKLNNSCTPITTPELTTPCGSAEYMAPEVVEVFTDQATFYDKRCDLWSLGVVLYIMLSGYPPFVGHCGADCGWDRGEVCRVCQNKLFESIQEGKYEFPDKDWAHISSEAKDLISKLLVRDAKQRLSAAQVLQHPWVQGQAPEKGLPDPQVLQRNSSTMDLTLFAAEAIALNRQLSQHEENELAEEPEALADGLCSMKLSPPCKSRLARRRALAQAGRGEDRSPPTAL
Experimental: MKNK1-inhibitory activity of compounds of the present invention was quantified employing the MKNK1 TR-FRET assay as described in the following paragraphs.
As substrate for the kinase reaction the biotinylated peptide biotin-Ahx-[sequence] (C-terminus in amide form) was used which can be purchased e.g. form the company Biosyntan (Berlin-Buch, Germany).
For the assay 50 mL of a 100 fold concentrated solution of the test compound in DMSO was pipetted into a black low volume 384 well microtiter plate (Greiner Bio-One, Frickenhausen, Germany), 2 μL of a solution of MKNK1 in aqueous assay buffer [50 mM HEPES pH 7.5, 5 mM magnesium chloride, 1.0 mM dithiothreitol, 0.005% (v/v) Nonidet-P40 (Sigma)] was added and the mixture was incubated for 15 min at 22° C. to allow pre-binding of the test compounds to the enzyme before the start of the kinase reaction. […] The concentration of MKNK1 was adjusted depending of the activity of the enzyme lot and was chosen appropriate to have the assay in the linear range, typical concentrations were in the range of 0.05 μg/ml. The reaction was stopped by the addition of 5 μL of a solution of TR-FRET detection reagents (5 nM streptavidine-XL665 [Cisbio Bioassays, Codalet, France] and 1 nM anti-ribosomal protein S6 (pSer236)-antibody from Invitrogen [#44921G] and 1 nM LANCE EU-W1024 labeled ProteinG [Perkin-Elmer, product no. 4D0071]) in an aqueous EDTA-solution (100 mM EDTA, 0.1% (w/v) bovine serum albumin in 50 mM HEPES pH 7.5).
The resulting mixture was incubated for 1 h at 22° C. to allow the formation of complex between the phosphorylated biotinylated peptide and the detection reagents. Subsequently the amount of phosphorylated substrate was evaluated by measurement of the resonance energy transfer from the Eu-chelate to the streptavidine-XL.

T1 sequence (Q9BUB5 1-424 isoform Q9BUB5-2 T344D): as above

Compound	IC50 (human full-length MKNK1) [nM]	IC50 (human full-lengt MKNK1) [nM]
COc1nccc2oc(-c3cnc4ccc(NCC(O)C5CC5)nn34)cc12 (centres unmarked) [Example 27, 1-Cyclopropyl-2-{[3-(4-methoxyfuro[3,2-c]pyridin-2-yl)imidazo[1,2-b]pyridazin-6-yl]amino}ethanol]	4	
O[C@@H](CNc1ccc2ncc(-c3cc4ccccc4o3)n2n1)c1cccnc1 [Example 20, (1R)-2-{[3-(1-Benzofuran-2-yl)imidazo[1,2-b]pyridazin-6-yl]amino}-1-(pyridin-3-yl)ethanol]		1
COc1nccc2oc(-c3cnc4ccc(NCC(O)C5CCOCC5)nn34)cc12 (centres unmarked) [Example 32, 2-{[3-(4-Methoxyfuro[3,2-c]pyridin-2-yl)imidazo[1,2-b]pyridazin-6-yl]amino}-1-(tetrahydro-2H-pyran-4-yl)ethanol]	18	
NCC(O)CNc1ccc2ncc(-c3cc4ccccc4o3)n2n1 (centres unmarked) [Example 31, 1-Amino-3-{[3-(1-benzofuran-2-yl)imidazo[1,2-b]pyridazin-6-yl]amino}propan-2-ol]	8	
CCC(O)CNc1ccc2ncc(-c3cc4ccccc4o3)n2n1 (centres unmarked) [Example 29, 1-{[3-(1-Benzofuran-2-yl)imidazo[1,2-b]pyridazin-6-yl]amino}butan-2-ol]	6	
OC(CCNc1ccc2ncc(-c3cc4ccccc4o3)n2n1)c1ccc(F)cc1 (centres unmarked) [Example 15, 3-{[3-(1-Benzofuran-2-yl)-imidazo-[1,2-b]-pyridazin-6-yl]-amino}-1-(4-fluoro-phenyl)-propan-1-ol]		32
CC(C)(C)C(O)CNc1ccc2ncc(-c3cc4ccccc4o3)n2n1 (centres unmarked) [Example 34, 1-{[3-(1-Benzofuran-2-yl)imidazo[1,2-b]pyridazin-6-yl]amino}-3,3-dimethylbutan-2-ol]	21	
CC[C@@H](CO)Nc1ccc2ncc(-c3cc4ccccc4o3)n2n1 [Example 4, (2S)-2-{[3-(1-Benzofuran-2-yl)-imidazo[1,2-b]-pyridazin-6-yl]-amino}butan-1-ol]		15
COc1nccc2oc(-c3cnc4ccc(NC[C@@H](O)c5ccccc5)nn34)cc12 [Example 35, (1S)-2-{[3-(4-Methoxyfuro[3,2-c]pyridin-2-yl)imidazo[1,2-b]pyridazin-6-yl]-amino}-1-phenylethanol]	25	
OCCCNc1ccc2ncc(-c3cc4ccccc4o3)n2n1 [Example 14, 3-{[3-(1-Benzofuran-2-yl)imidazo[1,2-b]pyridazin-6-yl]amino}propan-1-ol]		7
OC[C@H](O)CNc1ccc2ncc(-c3cc4ccccc4o3)n2n1 [Example 16, (2R)-3-{[3-(1-Benzofuran-2-yl)imidazo[1,2-b]pyridazin-6-yl]amino}propane-1,2-diol]		4
c1ccc(CNc2ccc3ncc(-c4ccncc4)n3n2)cc1 [Example R1, N-Benzyl-3-(pyridin-4-yl)imidazo[1,2-b]pyridazin-6-amine, reference compound]	370	181
OC(CNc1ccc2ncc(-c3cc4ccccc4o3)n2n1)C1CCOCC1 (single isomer, unassigned; (-)) [Example 26, (−)-2-{[3-(1-Benzofuran-2-yl)imidazo[1,2-b]pyridazin-6-yl]amino}-1-(tetrahydro-2H-pyran-4-yl)]	2	
OC(CNc1ccc2ncc(-c3cc4ccccc4o3)n2n1)CN1CCCC1 (centres unmarked) [Example 40, 1-{[3-(1-Benzofuran-2-yl)imidazo[1,2-b]pyridazin-6-yl]amino}-3-(pyrrolidin-1-yl)propan-2-ol]	38	
c1cc(Nc2ccc3ncc(-c4ccncc4)n3n2)ccn1 [Example R4, N,3-Di(pyridin-4-yl)-imidazo-[1,2-b]-pyridazin-6-amine, reference compound]	810	245
OC(CNc1ccc2ncc(-c3cc4ccccc4o3)n2n1)C1CC1 (single isomer, unassigned; (-)) [Example 24, (−)-2-{[3-(1-Benzofuran-2-yl)imidazo[1,2-b]pyridazin-6-yl]amino}-1-cyclopropylethanol]	1	
O[C@H](CNc1ccc2ncc(-c3cc4ccccc4o3)n2n1)c1ccccc1 [Example 19, (1S)-2-{[3-(1-Benzofuran-2-yl)imidazo[1,2-b]pyridazin-6-yl]amino}-1-phenylethanol]		22

Results, then the molecule that gave them:

IC50 (human full-length MKNK1) [nM]	IC50 (human full-lengt MKNK1) [nM]	Compound
27		OC(CNc1ccc2ncc(-c3cc4ccccc4o3)n2n1)C1CC1 (single isomer, unassigned; (+)) [Example 23, (+)-2-{[3-(1-Benzofuran-2-yl)imidazo[1,2-b]pyridazin-6-yl]amino}-1-cyclopropylethanol]
	13	OC[C@@H](O)CNc1ccc2ncc(-c3cc4ccccc4o3)n2n1 [Example 17, (2S)-3-{[3-(1-Benzofuran-2-yl)-imidazo-[1,2-b]-pyridazin-6-yl]amino}-propane-1,2-diol]
32		OC(CNc1ccc2ncc(-c3cc4ccccc4o3)n2n1)CN1CCOCC1 (centres unmarked) [Example 38, 1-{[3-(1-Benzofuran-2-yl)imidazo[1,2-b]pyridazin-6-yl]amino}-3-(morpholin-4-yl)propan-2-ol]
	1	O[C@@H](CNc1ccc2ncc(-c3cc4ccccc4o3)n2n1)c1ccccc1 [Example 18, (1R)-2-{[3-(1-Benzofuran-2-yl)imidazo[1,2-b]pyridazin-6-yl]amino}-1-phenylethanol]
170	64	c1ccc(Nc2ccc3ncc(-c4ccncc4)n3n2)cc1 [Example R2, N-Phenyl-3-(pyridin-4-yl)imidazo-[1,2-b]-pyridazin-6-amine, reference compound]
29		OC(CNc1ccc2ncc(-c3cc4ccccc4o3)n2n1)C1CCCCC1 (centres unmarked) [Example 37, 2-{[3-(1-Benzofuran-2-yl)imidazo[1,2-b]pyridazin-6-yl]amino}-1-cyclohexylethanol]
6		CCC(O)CNc1ccc2ncc(-c3cc4c(OC)nccc4o3)n2n1 (centres unmarked) [Example 30, 1-{[3-(4-Methoxyfuro[3,2-c]pyridin-2-yl)imidazo[1,2-b]pyridazin-6-yl]amino}butan-2-ol]
26		O=C1CCCN1CC(O)CNc1ccc2ncc(-c3cc4ccccc4o3)n2n1 (centres unmarked) [Example 36, 1-(3-{[3-(1-Benzofuran-2-yl)imidazo[1,2-b]pyridazin-6-yl]amino}-2-hydroxy-propyl)pyrrolidin-2-one]
41		OC(CNc1ccc2ncc(-c3cc4ccccc4o3)n2n1)c1ccc(F)cc1 (centres unmarked) [Example 41, 2-{[3-(1-Benzofuran-2-yl)imidazo[1,2-b]pyridazin-6-yl]amino}-1-(4-fluoro-phenyl)ethanol]
250	17	c1ccc(CCNc2ccc3ncc(-c4cc5ccccc5o4)n3n2)nc1 [Example R6, 3-(1-Benzofuran-2-yl)-N-[2-(pyridin-2-yl)ethyl]imidazo[1,2-b]pyridazin-6-amine, reference compound]
13	11	CN(C)CCNc1ccc2ncc(-c3cc4ccccc4o3)n2n1 [Example R7, N′-[3-(1-Benzofuran-2-yl)imidazo[1,2-b]pyridazin-6-yl]-N,N-dimethylethane-1,2-diamine, reference compound]
37		OC(CNc1ccc2ncc(-c3cc4ccccc4o3)n2n1)CN1CCCCC1 (centres unmarked) [Example 39, 1-{[3-(1-Benzofuran-2-yl)imidazo[1,2-b]pyridazin-6-yl]amino}-3-(piperidin-1-yl)propan-2-ol]
5		COc1nccc2oc(-c3cnc4ccc(NC[C@H](O)c5ccccc5)nn34)cc12 [Example 28, (1R)-2-{[3-(4-Methoxyfuro[3,2-c]pyridin-2-yl)imidazo[1,2-b]pyridazin-6-yl]amino}-1-phenylethanol]
	60	CC(O)(CNc1ccc2ncc(-c3cc4ccccc4o3)n2n1)c1ccccc1 (centres unmarked) [Example 21, 1-{[3-(1-Benzofuran-2-yl)imidazo[1,2-b]pyridazin-6-yl]amino}-2-phenylpropan-2-ol]
	5	OC(CNc1ccc2ncc(-c3cc4ccccc4o3)n2n1)c1ccccn1 (centres unmarked) [Example 22, 2-{[3-(1-Benzofuran-2-yl)imidazo[1,2-b]pyridazin-6-yl]amino}-1-(pyridin-2-yl)ethanol]
21		CC(C)C(O)CNc1ccc2ncc(-c3cc4ccccc4o3)n2n1 (centres unmarked) [Example 33, 1-{[3-(1-Benzofuran-2-yl)imidazo[1,2-b]pyridazin-6-yl]amino}-3-methylbutan-2-ol]
480	192	c1cc(-c2cnc3ccc(NC4CCOCC4)nn23)ccn1 [Example R5, 3-(Pyridin-4-yl)-N-(tetra-hydro-2H-pyran-4-yl)-imidazo-[1,2-b]-pyridazin-6-amine, reference compound]
7		OC(CNc1ccc2ncc(-c3cc4ccccc4o3)n2n1)C1CCOCC1 (single isomer, unassigned; (+)) [Example 25, (+)-2-{[3-(1-Benzofuran-2-yl)imidazo[1,2-b]pyridazin-6-yl]amino}-1-(tetrahydro-2H-pyran-4-yl)]
	6	OCCNc1ccc2ncc(-c3cc4ccccc4o3)n2n1 [Example 13, 2-{[3-(1-Benzofuran-2-yl)imidazo[1,2-b]pyridazin-6-yl]amino}ethanol]
34	23	c1ccc2oc(-c3cnc4ccc(NCc5ccncc5)nn34)cc2c1 [Example R8, 3-(1-Benzofuran-2-yl)-N-(pyridin-4-ylmethyl)imidazo[1,2-b]pyridazin-6-amine, reference compound]
